Results as given in patent US7132568B2, “Aspartyl protease inhibitors” (Sunesis Pharmaceuticals, Inc., priority 2002, dated 2006).

Assays:
[1] = system: H4 neuroglioma cells stably transfected with APP (H4 β695wt); assay: Cell-based Aβ secretion assay (sandwich ELISA) in H4 cells; conditions: Homo sapiens
Source text: This example describes an illustrative set of cell-based assays for testing the ability of the compounds of the present invention to inhibit the secretion of the Aβ peptide from cells expressing high levels of the human amyloid precursor protein (“APP”).
A representative set of such cells include A-204 rhabdomyosarcoma cells, human embryonic kidney 293 cells transiently transfected with APP, Chinese hamster ovary cells stably transfected with APP (CHO2B7), and H4 neuroglioma cells stably transfected with APP (H4 β695wt). The A-204 cells and HEK 293 cells were obtained from ATCC. For HEK 293 transient transfections, a pcDNA3 plasmid containing the human APP gene was obtained from Invitrogen, and cells were transfected with FuGENE 6 transfection reagent (Roche) following manufacturer's protocols. The CHO2B7 and H4 β695 wt lines were obtained from Mayo Clinic (J. Neuroscience Methods 108(2): 171–9 (2001)). […]
In the assay, cells were pre-treated with compounds for 1–2 hours to “wash out” any Aβ in the secretory pathway prior to incubation with compounds for the conditioning period required to generate detectable concentrations of Aβ. The production of secreted Aβ in cultured cells was monitored by sandwich ELISA, using the anti-Aβ monoclonal antibodies 6E10 and 4G8 (Signet Laboratories). […]

[2] = Plasma stability in human plasma; assay type: in vitro ADME; conditions: 37° C.
Procedure: Plasma stability was determined by incubating the compounds in human plasma at a concentration of 1 μM at 37° C. for 0, 30 and 60 minutes. Reactions were stopped by addition of acetonitrile. Protein was precipitated by centrifugation (3000 rpm×10 min) then supernatants were analyzed for remaining parent compound by LC/MS/MS.

[3] = Metabolic stability in human liver microsomes; assay type: in vitro ADME; conditions: pH 7.4
Procedure: Metabolic stability was determined by incubating the compounds with human liver microsomes (100 μg/ml) in 100 mM Tris buffer pH 7.4 for 5 minutes at 37° C. Metabolic reactions were started by addition of NADPH to give a final concentration of […]. Reactions were stopped after 30 and 60 minutes by addition of acetonitrile. Protein was precipitated by centrifugation (3000 rpm×10 min) then supernatants were analyzed for remaining parent compound by LC/MS/MS.

[4] = molecular target: Cat D (Homo sapiens, UniProt P07339); assay: Cat D Ki determination (DABCYL/EDANS substrate); assay type: biochemical
Sequence of Cat D (P07339 65-412): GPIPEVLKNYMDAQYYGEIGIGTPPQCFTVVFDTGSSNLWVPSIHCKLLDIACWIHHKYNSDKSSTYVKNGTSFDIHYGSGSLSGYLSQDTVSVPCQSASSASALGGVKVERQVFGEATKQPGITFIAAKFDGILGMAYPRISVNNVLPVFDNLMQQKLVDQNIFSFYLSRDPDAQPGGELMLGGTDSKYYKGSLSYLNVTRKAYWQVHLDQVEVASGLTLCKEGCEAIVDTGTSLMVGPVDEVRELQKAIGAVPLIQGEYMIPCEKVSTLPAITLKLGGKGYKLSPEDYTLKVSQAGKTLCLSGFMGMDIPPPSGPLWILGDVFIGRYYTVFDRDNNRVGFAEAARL
Procedure: The Ki determination for Cat D was performed using the assay conditions derived from Haque et al., J. Med. Chem. 42: 1428–1440 (1999) and the following substrate: DABCYL-GLu-Arg-Nle-Phe-Leu-Ser-Phe-Pro-EDANS where Nle is norleucine and DABCYL and EDANS are as previously defined.

| IC50 [1] [nM] | recovery at 1 h, 1 μM [2] [%] | recovery at 60 min [3] [%] | Ki [4] [nM] | preference for Cat D over BACE ([4]; BACE Ki versus Cat D Ki) [fold] | SMILES | preference for BACE over Cat D ([4]; Cat D Ki versus BACE Ki) |
| --- | --- | --- | --- | --- | --- | --- |
| 2000 | 100 | 0 | 20 | 7.5 | CCCN(CCC)C(=O)c1cccc(C(=O)N[C@@H](CC(C)C)[C@@H](O)C[C@@H](C)C(=O)N[C@H](C(=O)NCc2ccccc2)C(C)C)c1 [R = OH] | – |
| 740 | 100 | 43 | 610 | – | CCCN(CCC)C(=O)c1cccc(C(=O)N[C@@H](CC(C)C)[C@@H](N)C[C@@H](C)C(=O)N[C@H](C(=O)NCc2ccccc2)C(C)C)c1 [R = NH2] | over a three fold preference for BACE over Cat D |
